Assay [1] has as its target T1, angiotension I-converting enzyme (ACE) (Oryctolagus cuniculus, UniProt P12822).
T1 construct: The ACE solution was prepared by homogenizing 5 g of acetone powders of rabbit lungs; tissue Sigma Chemical Co; host or cells: rabbit lung (acetone powder, borate buffer extract, 40,000 G supernatant)
T1 sequence (P12822 34-1310): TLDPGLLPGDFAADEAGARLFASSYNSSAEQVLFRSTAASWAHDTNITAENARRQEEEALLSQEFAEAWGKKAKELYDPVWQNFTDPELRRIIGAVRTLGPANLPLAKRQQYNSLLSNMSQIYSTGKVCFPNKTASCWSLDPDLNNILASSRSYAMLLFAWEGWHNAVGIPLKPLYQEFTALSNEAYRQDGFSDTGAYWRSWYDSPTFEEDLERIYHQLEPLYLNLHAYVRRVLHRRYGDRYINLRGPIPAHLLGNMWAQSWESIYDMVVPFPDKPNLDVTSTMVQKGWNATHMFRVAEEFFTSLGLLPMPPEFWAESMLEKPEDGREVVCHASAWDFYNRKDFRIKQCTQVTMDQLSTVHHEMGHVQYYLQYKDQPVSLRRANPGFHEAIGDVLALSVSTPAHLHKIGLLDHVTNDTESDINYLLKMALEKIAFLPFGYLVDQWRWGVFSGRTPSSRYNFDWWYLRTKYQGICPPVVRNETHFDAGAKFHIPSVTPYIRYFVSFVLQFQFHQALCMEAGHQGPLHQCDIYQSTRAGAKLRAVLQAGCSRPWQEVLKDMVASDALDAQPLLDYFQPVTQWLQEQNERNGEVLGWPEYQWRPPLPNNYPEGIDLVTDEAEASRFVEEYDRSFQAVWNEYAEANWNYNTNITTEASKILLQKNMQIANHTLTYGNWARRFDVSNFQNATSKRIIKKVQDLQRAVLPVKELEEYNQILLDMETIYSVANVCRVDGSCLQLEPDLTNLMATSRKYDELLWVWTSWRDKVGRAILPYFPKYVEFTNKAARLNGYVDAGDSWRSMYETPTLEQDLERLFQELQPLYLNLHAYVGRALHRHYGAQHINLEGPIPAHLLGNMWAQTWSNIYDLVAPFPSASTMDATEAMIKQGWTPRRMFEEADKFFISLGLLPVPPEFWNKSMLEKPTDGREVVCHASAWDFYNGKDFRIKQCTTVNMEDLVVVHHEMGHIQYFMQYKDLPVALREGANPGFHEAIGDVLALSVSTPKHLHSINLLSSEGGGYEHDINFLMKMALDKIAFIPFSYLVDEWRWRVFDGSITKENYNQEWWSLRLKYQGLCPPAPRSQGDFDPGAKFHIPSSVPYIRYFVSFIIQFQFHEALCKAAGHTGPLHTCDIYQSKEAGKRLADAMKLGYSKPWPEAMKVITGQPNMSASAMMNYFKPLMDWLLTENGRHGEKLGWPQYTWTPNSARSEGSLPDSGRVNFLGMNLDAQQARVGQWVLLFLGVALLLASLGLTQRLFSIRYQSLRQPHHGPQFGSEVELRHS
Kind of assay: Measurement of inhibitory activity against the angiotension I-converting enzyme (ACE), hippuryl-l-histidyl-l-leucine as substrate. Format: biochemical, rabbit. Here is the method:
The inhibitory activities of compounds of the invention and of the known compound, prazosin, against the angiotension I-converting enzyme (ACE) were measured by the method of D. W. Cushman and H. S. Cheung [Biochem. Pharmacol. 20, 637 (1971)], using hippuryl-l-histidyl-l-leucine as a substrate. The reaction mixture consisted of 225 μl of a 0.1 M borate buffer solution (pH 8.3) containing 0.4 M sodium chloride, 25 μl of the substrate (12.5 mM solution), 25 μl of a partially purified ACE and 25 μl of a test compound solution (prepared from a 1 mg/ml aqueous acetone solution of the compound). This reaction mixture was maintained at 37° C. for 30 minutes, after which 300 μl of 1N hydrochloric acid were added in order to stop the reaction. 2 ml of ehtyl acetate were then added and the mixture was stirred for 10 seconds and then centrifuged at 3,000 rpm for 5 minutes. 1.5 ml of the ethyl acetate layer was separated and concentrated by evaporation to dryness. The residue was dissolved in 1 ml of distilled water and the quantity of hippuric acid in this solution was measured from its absorbance at 228 mμ, using a spectrophotometer.
The ACE solution was prepared by homogenizing 5 g of acetone powders of rabbit lungs (a product of Sigma Chemical Co., U.S.A., prepared by homogenizing rabbit lungs in a buffer solution and separating out the enzymes precipitated with acetone) in 50 ml of a borate buffer solution (pH 8.3), centrifuging the mixture at 40,000 G for 30 minutes and then separating the supernatant.
The inhibitory activity against ACE was calculated from the formula: [formula] in which Ac is the absorbance of the control and As is the absorbance of the sample. Inhibition curves were made for each sample by measuring the inhibitory activity at five different concentrations, prepared by two-fold dilutions. The IC50 values, which are the molar concentrations of the compounds required to inhibit the ACE activity by 50%, were calculated for each compound.

In assay [2] the test system is angiotensin I-converting enzyme. Particulars: reported by Cushman et al.; cited from earlier work.
A further assay relates to hypertensive animals. Particulars: reported by Cushman et al.; cited from earlier work.
The mark [3] stands for this setting: pH 8.3, 37° C., 30 minutes, partially purified ACE from rabbit lungs, read-out: Inhibitory concentration IC50.

Each structure is given as a SMILES string. pIC50: −log10 of the molar value. Structures can show the parent of a compound that is named as a salt. Where two headings read alike, the source gives them in different places. Where only a bound is given, the exact number is not on record here.

With `CCOC(=O)N1CCN(c2nc(NC(=O)C3CSCN3C(=O)C(C)CSC(C)=O)c3cc(OC)c(OC)cc3n2)CC1` (racemic) [Example 6, 4-[3-(DL-3-Acetylthio-2-methylpropanoyl)thiazolidine-4-carbonyl]amino-2-(4-ethoxycarbonyl-1-piperazinyl)-6,7-dimethoxyquinazoline hydrochloride hemihydrate], the pIC50 in assay [1] (setting [3]) is 5.85. As to `C[C@H](CS)C(=O)N1CCC[C@H]1C(=O)O` [1-(D-3-mercapto-2-methylpropanoyl)-L-proline], in assay [2], the “inhibitory activity against the angiotensin I-converting enzyme” value is reported as “potent inhibitory activity”. Also, in the assay on hypertensive animals, the antihypertensive activity result is reported as “exhibits antihypertensive activity”.

Turning to `CCOC(=O)N1CCN(c2nc(NC(=O)[C@@H]3CCCN3C(=O)[C@H](C)CSC(C)=O)c3cc(OC)c(OC)cc3n2)CC1` [Example 1, 4[1-(D-3-Acetylthio-2-methylpropanoyl)-L-prolyl]amino-2-(4-ethoxycarbonyl-1-piperazinyl)-6,7-dimethoxy-quinazoline hydrochloride hemihydrate], the pIC50 in assay [1] (setting [3]) was 6.38. Regarding `C/C=C/C(=O)N1CCN(c2nc(NC(=O)[C@@H]3CCCN3C(=O)[C@H](C)CSC(C)=O)c3cc(OC)c(OC)cc3n2)CC1` [Example 2, 4[1-(D-3-Acetylthio-2-methylpropanoyl)-L-prolyl]amino-2-(4-crotonoyl-1-piperazinyl)-6,7-dimethoxyquinazoline. hydrochloride hydrate], in assay [1] (setting [3]), the pIC50 was 6.44. For `COc1cc2nc(N3CCN(C(=O)C(C)Oc4ccccc4)CC3)nc(NC(=O)[C@@H]3CCCN3C(=O)[C@H](C)CSC(C)=O)c2cc1OC` (stereo partly drawn) [Example 3, 4-[1-(D-3-Acetylthio-2-methylpropanoyl)-L-prolyl]amino-6,7-dimethoxy-2[4-(2-phenoxypropionyl)-1-piperazinyl]quinazoline hydrochloride hydrate], the pIC50 in assay [1] (setting [3]) was 6.47. On to `COc1cc2nc(N3CCN(C(=O)c4ccc(OCc5ccccc5)cc4)CC3)nc(NC(=O)[C@@H]3CCCN3C(=O)[C@H](C)CSC(C)=O)c2cc1OC` [Example 4, 4-[1-(D-3-Acetylthio-2-methylpropanoyl)-L-prolyl]amino-2-[4-(4-benzyloxybenzoyl)-1-piperazinyl]-6,7-dimethoxy-quinazcline hydrochloride sesquihydrate], for which, in assay [1] (setting [3]), the pIC50 was 6.35. For the compound `COc1ccc(C(=O)N2CCN(c3nc(NC(=O)[C@@H]4CCCN4C(=O)[C@H](C)CSC(C)=O)c4cc(OC)c(OC)cc4n3)CC2)cc1OC` [Example 5, 4-[1-(D-3-Acetylthio-2-methylpropanoyl)-L-prolyl]amino-2-(4-(3,4-dimethoxybenzoyl)-1-piperazinyl]-6,7-dimethoxy-quinazoline hydrochloride sesquihydrate], the pIC50 in assay [1] (setting [3]) was 6.58. Still for that read-out and setting: the result for `COc1cc2nc(N3CCN(C(=O)c4ccco4)CC3)nc(NC(=O)[C@@H]3CCCN3C(=O)[C@H](C)CSC(C)=O)c2cc1OC` [Example 7, 4-[1-(D-3-Acetylthio-2-methylpropanoyl)-L-prolyl]amino-2-[4-(2-furoyl)-1-piperazinyl]-6,7-dimethoxyquinazoline.hydrochloride.hydrate] reads 6.51.

In turn, `COc1cc2nc(N3CCN(C(=O)c4ccco4)CC3)nc(N)c2cc1OC` [prazosin, reference compound] showed a pIC50 in assay [1] of no more than 5.00.

The values above are taken from patent publication US4495188A, “Acylaminoquinazoline derivatives and a pharmaceutical composition containing them” (Sankyo Company Limited, priority 1980, dated 1985).
